# PubChem BioAssay (NCI)
#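 Assay format: 96-well plates, 48-hour exposure. GI50 is the concentration that inhibits growth by half. TGI is the concentration that stops growth completely.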
# Columns and labels:
# Test in all cases: inhibition of tumour cell growth, NCI panel, 48 h
# [1] = system: MDA-MB-468 breast
# [2] = system: UO-31 renal
# [3] = system: A498 renal
# [4] = system: ACHN renal
# [5] = system: SF-295 CNS
# [6] = system: T-47D breast
# [7] = system: OVCAR-3 ovarian
# [8] = system: NCI/ADR-RES ovarian
# [9] = system: OVCAR-4 ovarian
# [10] = system: A549 NSCLC
# [11] = system: HOP-62 NSCLC
# [12] = system: M14 melanoma
# [13] = system: SF-268 CNS
# [14] = system: HCC-2998 colon
# [15] = system: HS 578T breast
# [16] = system: HCT-116 colon
# [17] = system: MOLT-4 leukemia
# [18] = system: UACC-257 melanoma
# [19] = system: EKVX NSCLC
# [20] = system: SR leukemia
# [21] = system: CAKI-1 renal
# [22] = system: HOP-92 NSCLC
# [23] = system: MCF7 breast
# [24] = system: NCI-H226 lung
# [25] = system: COLO 205 colon
# [26] = system: SNB-19 CNS
# [27] = system: LOX IMVI melanoma
# [28] = system: CCRF-CEM leukemia
# [29] = system: SNB-75 CNS
# [30] = system: SW-620 colon
# [31] = system: BT-549 breast
# [32] = system: NCI-H522 lung
# [33] = system: RXF 393 renal
# [34] = system: NCI-H460 lung
# [35] = system: RPMI-8226 leukemia
# [36] = system: NCI-H23 lung
# [37] = system: TK-10 renal
# [38] = system: MALME-3M melanoma
# [39] = system: HL-60(TB) leukemia
# [40] = system: SF-539 CNS
# [41] = system: SK-MEL-5 melanoma
# [42] = system: HCT-15 colon
# [43] = system: U251 CNS
# [44] = system: OVCAR-8 ovarian
# [45] = system: SN12C renal
# [46] = system: PC-3 prostate
# [47] = system: UACC-62 melanoma
# [48] = system: K-562 leukemia
# [49] = system: KM12 colon
# [50] = system: SK-OV-3 ovarian
# [51] = system: OVCAR-5 ovarian
# [52] = system: HT29 colon
# [53] = system: DU-145 prostate
# [54] = system: MDA-MB-435
# [55] = system: 786-0 renal
# [56] = system: IGROV1 ovarian
# [57] = system: SK-MEL-2 melanoma
# [58] = system: SK-MEL-28 melanoma
# [59] = system: MDA-MB-231 breast
smiles,measurement,setting,value
CCOc1ccc2ncc(C#Cc3cncc(C(=O)Nc4ccc(CN5CCN(C)CC5)c(C(F)(F)F)c4)c3)n2n1,GI50,[1],1660 nM
same,TGI,[1],11100 nM
same,GI50,[2],2200 nM
same,TGI,[2],13700 nM
same,GI50,[3],6960 nM
same,TGI,[3],24300 nM
same,GI50,[4],561 nM
same,TGI,[4],15000 nM
same,GI50,[5],918 nM
same,TGI,[5],19000 nM
same,GI50,[6],17800 nM
same,TGI,[6],> 70500 nM
same,GI50,[7],4500 nM
same,TGI,[7],24600 nM
same,GI50,[8],1160 nM
same,TGI,[8],2660 nM
same,GI50,[9],3560 nM
same,TGI,[9],28700 nM
same,GI50,[10],1160 nM
same,TGI,[10],22700 nM
same,GI50,[11],1250 nM
same,TGI,[11],14400 nM
same,GI50,[12],416 nM
same,TGI,[12],1790 nM
same,GI50,[13],1920 nM
same,TGI,[13],17600 nM
same,GI50,[14],2340 nM
same,TGI,[14],20100 nM
same,GI50,[15],283 nM
same,TGI,[15],3110 nM
same,GI50,[16],225 nM
same,TGI,[16],1560 nM
same,GI50,[17],316 nM
same,TGI,[17],3350 nM
same,GI50,[18],2160 nM
same,TGI,[18],11400 nM
same,GI50,[19],704 nM
same,TGI,[19],17800 nM
same,GI50,[20],723 nM
same,TGI,[20],9400 nM
same,GI50,[21],790 nM
same,TGI,[21],13200 nM
same,GI50,[22],206 nM
same,TGI,[22],1340 nM
same,GI50,[23],208 nM
same,TGI,[23],1740 nM
same,GI50,[24],151 nM
same,TGI,[24],1850 nM
same,GI50,[25],272 nM
same,TGI,[25],883 nM
same,GI50,[26],6370 nM
same,TGI,[26],21700 nM
same,GI50,[27],608 nM
same,TGI,[27],1940 nM
same,GI50,[28],64.2 nM
same,TGI,[28],> 21200 nM
same,GI50,[29],3310 nM
same,TGI,[29],16300 nM
same,GI50,[30],287 nM
same,TGI,[30],2300 nM
same,GI50,[31],1790 nM
same,TGI,[31],12400 nM
same,GI50,[32],1400 nM
same,TGI,[32],21900 nM
same,GI50,[33],890 nM
same,TGI,[33],2340 nM
same,GI50,[34],534 nM
same,TGI,[34],16900 nM
same,GI50,[35],1060 nM
same,TGI,[35],4380 nM
same,GI50,[36],393 nM
same,TGI,[36],4900 nM
same,GI50,[37],8090 nM
same,TGI,[37],23300 nM
same,GI50,[38],353 nM
same,TGI,[38],1710 nM
same,GI50,[39],521 nM
same,TGI,[39],16300 nM
same,GI50,[40],143 nM
same,TGI,[40],755 nM
same,GI50,[41],1890 nM
same,TGI,[41],7250 nM
same,GI50,[42],357 nM
same,TGI,[42],1660 nM
same,GI50,[43],11700 nM
same,TGI,[43],30900 nM
same,GI50,[44],3210 nM
same,TGI,[44],10600 nM
same,GI50,[45],643 nM
same,TGI,[45],11700 nM
same,GI50,[46],1520 nM
same,TGI,[46],19200 nM
same,GI50,[47],9920 nM
same,TGI,[47],24500 nM
same,TGI,[48],1360 nM
same,TGI,[49],10500 nM
same,GI50,[50],4640 nM
same,TGI,[50],19700 nM
same,GI50,[51],802 nM
same,TGI,[51],12000 nM
same,GI50,[52],475 nM
same,TGI,[52],2390 nM
same,GI50,[53],1100 nM
same,TGI,[53],17300 nM
same,GI50,[54],592 nM
same,TGI,[54],5150 nM
same,GI50,[55],1560 nM
same,TGI,[55],2950 nM
same,GI50,[56],2180 nM
same,TGI,[56],19100 nM
same,GI50,[57],1340 nM
same,TGI,[57],11900 nM
same,GI50,[58],1300 nM
same,TGI,[58],2660 nM
same,GI50,[59],362 nM
same,TGI,[59],2870 nM
